According to patent US20060004002A1 (priority 2004, published 2006):
pIC50: −log10 of the molar value. Read-outs that look alike come from different tables or passages of the source.

What was measured:
Type in all cases: biochemical
Recombinant Csk = target: T1, Recombinant Csk (Homo sapiens, UniProt P41240); experiment: Csk tyrosine kinase activity assay with poly E4Y and 32P-ATP; conditions: NI = no inhibition
T1 construct: GST ('glutathione-5-transferase' [sic]); made in house; host or cells: E. coli (pGEX expression vector)
Experimental: (§1) Recombinant human Src was expressed using the baculovirus-insect cell system and purified as published (Budde et al., 1993 and 2000). Recombinant Csk and the FGF receptor (FGFr) were expressed as […] fusion proteins using the pGEX expression vector and E. coli, and purified as described (Sun & Budde, 1995).
(§2) The tyrosine kinase activity of Src, Csk and FGFr was determined using poly E4Y and ^32P-ATP. Briefly, enzymes were assayed in a reaction mixture […] consisting of 0.15 M EPPS-NaOH (pH 8.0) with 6 mM MgCl2, 0.2 mM γ^32P-ATP (0.2-0.4 mCi/μmol), 10% glycerol, 0.1% Triton X-100, and poly E4Y. Poly E4Y is a synthetic peptide whose phosphorylation is measured in this assay by the addition of the radioactively labeled phosphate from the ATP (Budde et al., 1995). […] When ATP was varied (0, 50, 100 and 250 μM), poly E4Y was kept constant at 150 μg/ml.

FGF receptor (FGFr) = target: T2, FGF receptor (FGFr); experiment: FGFr tyrosine kinase activity assay with poly E4Y and 32P-ATP; conditions: NI = no inhibition
T2 construct: fused on or other part: glutathione-S-transferase (GST) from the pGEX vector
Experimental: as §1, §2

Recombinant human Src = target: T3, Recombinant human Src (Homo sapiens, UniProt P12931); experiment: Src tyrosine kinase activity assay with poly E4Y and 32P-ATP
T3 construct: made in house; host or cells: baculovirus-insect cell system
T3 sequence (P12931 whole entry): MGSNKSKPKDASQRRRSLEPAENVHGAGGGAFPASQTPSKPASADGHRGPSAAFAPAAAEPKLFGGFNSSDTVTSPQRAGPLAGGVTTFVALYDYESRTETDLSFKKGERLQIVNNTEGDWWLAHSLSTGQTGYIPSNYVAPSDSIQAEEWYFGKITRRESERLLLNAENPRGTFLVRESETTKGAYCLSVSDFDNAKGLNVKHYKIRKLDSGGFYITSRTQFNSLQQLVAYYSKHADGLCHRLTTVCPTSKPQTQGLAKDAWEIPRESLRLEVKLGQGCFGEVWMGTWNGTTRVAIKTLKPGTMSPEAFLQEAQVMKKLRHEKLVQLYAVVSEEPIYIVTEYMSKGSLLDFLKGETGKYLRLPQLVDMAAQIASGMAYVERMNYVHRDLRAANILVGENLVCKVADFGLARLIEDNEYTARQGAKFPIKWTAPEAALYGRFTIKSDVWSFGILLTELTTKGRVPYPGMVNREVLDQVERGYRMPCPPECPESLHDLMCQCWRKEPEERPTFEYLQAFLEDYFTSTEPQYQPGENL
Outline: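 Src expressed in baculovirus-insect cells; Csk and FGFr expressed as GST fusions in E. coli. Kinase activity measured as 32P transfer from γ32P-ATP (0.2 mM, 0.2-0.4 mCi/μmol) to poly E4Y in 0.15 M EPPS-NaOH pH 8.0, 6 mM MgCl2, 10% glycerol, 0.1% Triton X-100; in ATP-variation runs (0-250 μM), poly E4Y fixed at 150 μg/ml.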

[1] = poly E4Y, 32P-ATP, NI = no inhibition, read-out: IC50 Value Src
[2] = especially good inhibitors of Src, screening assay 50 μg/ml poly E4Y, 0.2 mM ATP, read-out: IC50 (inhibitors of Src)

Row | SMILES | pIC50 (Recombinant Csk) | pIC50 (FGF receptor (FGFr)) | pIC50 (Recombinant human Src; [1]) | pIC50 (Recombinant human Src; [2])
1 | CCCOc1ccccc1-c1sc2c(NN=Cc3cccs3)ncnc2c1O [Compound 85] | 4.75 | 5.12 | 8.32 | –
2 | CCOc1ccccc1-c1sc2c(NN=Cc3cc(Br)c(O)c(OC)c3)ncnc2c1O [Compound 89, 3-Bromo-4-hydroxy-5-methoxybenzaldehyde (6-(2-ethoxyphenyl)-7-hydroxythieno[3,2-d]pyrimidin-4-yl)hydrazone] | 5.54 | 5.72 | 8.60 | –
3 | CCOc1ccccc1-c1sc2c(NN=Cc3ccc(O)c(Cl)c3)ncnc2c1O [Compound 92, 3-Chloro-4-hydroxybenzaldehyde (6-(2-ethoxyphenyl)-7-hydroxythieno[3,2-d]pyrimidin-4-yl)hydrazone] | 4.95 | 4.56 | 8.38 | –
4 | CCOc1ccccc1-c1sc2c(NN=Cc3cc(OC)c(O)c(OC)c3)ncnc2c1O [Compound 96, 3,5-Dimethoxy-4-hydroxybenzaldehyde (6-(2-ethoxyphenyl)-7-hydroxythieno[3,2-d]pyrimidin-4-yl)hydrazone] | 6.24 | – | 9.14 | ≥ 5.70
5 | CCOc1ccccc1-c1sc2c(NN=Cc3ccncc3)ncnc2c1O [Compound 112, 4-Pyridinecarboxaldehyde (6-(2-ethoxyphenyl)-7-hydroxythieno[3,2-d]pyrimidin-4-yl)hydrazone] | 5.14 | – | 8.40 | –

The remaining lines, values ahead:

Row | pIC50 (Recombinant Csk) | pIC50 (FGF receptor (FGFr)) | pIC50 (Recombinant human Src; [1]) | pIC50 (Recombinant human Src; [2]) | SMILES
6 | 5.47 | 5.64 | 8.60 | – | CCOc1ccccc1-c1sc2c(NN=Cc3ccc(O)c(OC)c3)ncnc2c1O [Compound 88, 4-Hydroxy-3-methoxybenzaldehyde (6-(2-ethoxyphenyl)-7-hydroxythieno[3,2-d]pyrimidin-4-yl)hydrazone]
7 | 3.99 | 3.99 | 8.26 | – | COc1ccc(C=NNc2ncnc3c(C)c(-c4ccc(CN5CCOCC5)cc4)sc23)cc1O [Compound 46, 3-Hydroxy-4-methoxybenzaldehyde (6-(4-(morpholin-4-yl)methyl-phenyl)-7-methylthieno[3,2-d]pyrimidin-4-yl)hydrazone]
8 | 3.68 | – | 7.44 | – | CCOc1cc(F)ccc1-c1sc2c(NN=Cc3ccc(OC)c(O)c3)ncnc2c1CO [Compound 60, 3-Hydroxy-4-methoxybenzaldehyde (6-(2-ethoxy-4-fluorophenyl)-7-hydroxymethylthieno[3,2-d]pyrimidin-4-yl)hydrazone]
9 | 5.00 | – | 7.80 | – | COc1ccc(C=NNc2ncnc3c(C#N)c(-c4ccc(N)cc4)sc23)cc1O [compound 59]
10 | 5.87 | – | 7.41 | ≥ 5.70 | C=Cc1c(-c2ccccc2OCC)sc2c(NN=Cc3ccc(OC)c(O)c3)ncnc12 [Compound 34, 3-Hydroxy-4-methoxybenzaldehyde (6-(2-ethoxyphenyl)-7-vinylthieno[3,2-d]pyrimidin-4-yl)hydrazone]
11 | 6.34 | – | 7.14 | ≥ 5.70 | COc1ccc(C=NNc2ncnc3c(C)c(-c4ccc(N(C)C)cc4)sc23)cc1O [Compound 42, 3-Hydroxy-4-methoxybenzaldehyde (6-(4-N,N-dimethylaminophenyl)-7-methylthieno[3,2-d]pyrimidin-4-yl)hydrazone]
